Data: ChEMBL document CHEMBL1141883 (J Med Chem, 2005)

What was measured:
[1] = biological target: Glycogen synthase kinase-3 (Homo sapiens, UniProt P49840+P49841); experiment: Inhibition of glycogen synthase kinase 3; assay type: protein assay
[2] = biological target: Cyclin-dependent kinase 1/cyclin B (Homo sapiens, UniProt P06493); experiment: Inhibition of cyclin-dependent kinase 1/cyclinB; assay type: protein-complex assay
[3] = biological target: Cyclin-dependent kinase 6 (Homo sapiens, UniProt Q00534); experiment: Inhibition of human cyclin-dependent kinase 6 complex with a virus-encoded cyclin from herpesvirus saimiri (Vcyclin)
[4] = biological target: Cyclin-dependent kinase 5/CDK5 activator 1 (Homo sapiens, UniProt Q00535); experiment: Inhibition of Cyclin-dependent kinase 5-p25nck5a; assay type: protein-complex assay
Sequence of Cyclin-dependent kinase 5/CDK5 activator 1 (Q00535 whole entry): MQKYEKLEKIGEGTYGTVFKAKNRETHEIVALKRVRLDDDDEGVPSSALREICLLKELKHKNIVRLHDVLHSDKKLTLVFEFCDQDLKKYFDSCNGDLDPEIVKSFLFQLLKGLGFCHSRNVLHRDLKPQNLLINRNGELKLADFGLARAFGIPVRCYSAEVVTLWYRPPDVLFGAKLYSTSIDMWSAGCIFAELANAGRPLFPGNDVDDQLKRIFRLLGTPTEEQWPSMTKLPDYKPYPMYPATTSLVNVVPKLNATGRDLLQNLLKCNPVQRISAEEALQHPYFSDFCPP
Sequence of Cyclin-dependent kinase 5/CDK5 activator 1 (Q15078 whole entry, further chain): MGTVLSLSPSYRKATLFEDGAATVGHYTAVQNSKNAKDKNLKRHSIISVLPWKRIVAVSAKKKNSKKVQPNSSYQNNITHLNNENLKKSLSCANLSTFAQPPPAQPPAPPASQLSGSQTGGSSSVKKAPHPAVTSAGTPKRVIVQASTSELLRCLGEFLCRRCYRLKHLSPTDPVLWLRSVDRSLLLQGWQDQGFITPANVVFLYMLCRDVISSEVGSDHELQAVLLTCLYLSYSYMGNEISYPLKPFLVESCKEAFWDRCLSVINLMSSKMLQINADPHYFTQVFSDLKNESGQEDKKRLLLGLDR

Sequence of Cyclin-dependent kinase 6 (Q00534 whole entry): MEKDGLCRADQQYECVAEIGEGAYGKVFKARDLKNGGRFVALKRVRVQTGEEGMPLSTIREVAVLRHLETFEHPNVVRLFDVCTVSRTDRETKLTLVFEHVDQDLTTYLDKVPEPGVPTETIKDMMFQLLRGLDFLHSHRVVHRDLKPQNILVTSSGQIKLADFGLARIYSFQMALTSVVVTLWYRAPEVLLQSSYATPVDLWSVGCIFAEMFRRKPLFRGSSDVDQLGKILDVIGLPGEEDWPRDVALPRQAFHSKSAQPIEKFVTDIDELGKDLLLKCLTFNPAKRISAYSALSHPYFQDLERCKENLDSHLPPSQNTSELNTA

Structure (SMILES)	IC50 [1]	IC50 [2]	IC50 [3]	IC50 [4]
O=c1cc(-c2ccccc2)oc2cc(O)cc(O)c12 [CHRYSIN]	7.2 µM	7.1 µM	6 µM	3.1 µM
O=c1c(O)c(-c2ccc(O)c(O)c2)oc2cc(O)ccc12 [FISETIN]	0.42 µM	0.79 µM		0.57 µM
O=c1c(O)c(-c2ccc(O)cc2)oc2cc(O)cc(O)c12 [KAEMPFEROL]	3.5 µM	41 µM	22 µM	51 µM
O=c1cc(-c2ccc(O)cc2)oc2cc(O)cc(O)c12 [APIGENIN]	1.4 µM	4 µM	1.7 µM	1.6 µM
O=c1c(O)c(-c2ccc(O)c(O)c2)oc2cc(O)cc(O)c12 [QUERCETIN]	2.1 µM	75 µM	25 µM	
O=c1cc(-c2ccc(O)c(O)c2)oc2cc(O)cc(O)c12 [LUTEOLIN]	0.8 µM		> 300 µM	3.8 µM
